Data reported in US5391540A, “Substituted pyridine compounds” (Rohm and Haas Company, priority 1993, dated 1995).

Key:
Assay type in all cases: in vivo
[1] = test system: Hese; assay: plant injury after spraying emerged plants (Table D); design: scale not given here
Outline: (§1)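 Injury to emerged plants was assessed after spraying. Plants came from seeds or propagules sown into sterilized, sieved silt-loam topsoil under a 1.27 cm layer of 50% topsoil with peat moss, vermiculite and wetting agent, then kept on greenhouse capillary mats with subirrigation.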

[2] = test system: Mogl; assay: as above; design: scale not given here
Outline: as §1

[3] = test system: Prmi; assay: as above; design: scale not given here
Outline: as §1

[4] = test system: Vele; assay: as above; design: scale not given here
Outline: as §1

[5] = test system: Wibw; assay: as above; design: scale not given here
Outline: as §1

[6] = test system: Annual Bluegrass; assay: Pre-emergent herbicidal activity (Table A); conditions: pre-emergence, Anbg, 11.2 kg/ha, 10-14 days, read-out: herbicidal rating (% inhibition)
Outline: (§2)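 Seeds were sown on compacted topsoil and covered with soil into which test compound (in acetone or water carrier) had been mixed at 11.2 kg/ha. Pans were kept watered on a greenhouse bench, and percent inhibition was scored as a rating about 10-14 days (usually 11) after treatment.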

[7] = test system: Indian Mustard; assay: Pre-emergent herbicidal activity (Table A); conditions: Brassica juncea, pre-emergence, Inmu, 11.2 kg/ha, 10-14 days, read-out: herbicidal rating (% inhibition)
Outline: as §2

[8] = test system: Seedling Johnsongrass; assay: Pre-emergent herbicidal activity (Table A); conditions: Sorghum halepense, pre-emergence, Sejg, 11.2 kg/ha, 10-14 days, read-out: herbicidal rating (% inhibition)
Outline: as §2

[9] = test system: Wild Buckwheat; assay: Pre-emergent herbicidal activity (Table A); conditions: Fallopia convolvulus, pre-emergence, Wibw, 11.2 kg/ha, 10-14 days, read-out: herbicidal rating (% inhibition)
Outline: as §2

[10] = test system: Cotz; assay: plant injury after spraying emerged plants (Table D); design: scale not given here
From the text: (§3) Topsoil (silt loam) is sieved through a screen having 1.27 cm openings. In some of the tests the soil was mixed with fertilizer (1225 g/cu. m of 12/5/9 containing isobutylidene diurea), while in other tests the fertilizer was omitted. This mixture is steam sterilized and then placed in aluminum pans 6.985 cm deep having ten holes in the bottom each 0.635 cm in diameter. The soil mixture is compacted to a depth of 1.27 cm. from the top of the pan. A predetermined number of seeds of each of several dicotyledonous and monocotyledonous annual plant species and/or vegetative propagules for the perennial plant species are placed on the soil and pressed into the soil surface. The seeds and/or vegetative propagules are covered with 1.27 cm of a mixture of 50% topsoil and 50% of a mixture of Canadian sphagnum peat moss, vermiculite and a wetting agent. The pans are then placed on a capillary mat on a greenhouse bench and subirrigated as needed. After the plants reach the desired stage (9 to 14 days, 1 to 3 true leaf stage), each pan (except the control pans) is removed to a spraying chamber and sprayed by means of an atomizer, operating at a spray pressure of 170.3 kPa ([…]) at the application rates noted in Table D. In the spray solution is an amount of an emulsifying agent mixture (35% butylamine salt of dodecylbenzenesulfonic acid and 65% tall oil condensed with ethylene oxide in the ratio of 11 mols of ethylene oxide/mol of tall oil) to give a spray solution or suspension. The spray solution or suspension contains a sufficient amount of the candidate chemical in order to give application rates of the active ingredient corresponding to those shown in Table D below while applying a total amount of solution or suspension equivalent to 1870 L/Ha (200 gallons/acre). The pans are returned to the greenhouse and watered as before and the injury to the plants as compared to the control pans is observed at approximately 10-14 days (usually 11 days).
(§4) In the following Table D the legends used to identify the plant species are the same as those used in the preceding Table B.

[11] = test system: Rape; assay: as above; design: scale not given here
From the text: as §3, §4

| Compound | plant injury rating, Hese ([1]; 1.1210 kg/ha) | plant injury rating, Hese ([1]; 5.6050 kg/ha) | plant injury rating, Mogl ([2]; 1.1210 kg/ha) | plant injury rating, Mogl ([2]; 5.6050 kg/ha) | plant injury rating, Prmi ([3]; 1.1210 kg/ha) | plant injury rating, Prmi ([3]; 5.6050 kg/ha) | plant injury rating, Vele ([4]; 1.1210 kg/ha) | plant injury rating, Vele ([4]; 5.6050 kg/ha) | plant injury rating, Wibw ([5]; 1.1210 kg/ha) | plant injury rating, Wibw ([5]; 5.6050 kg/ha) | inhibition at 11200 g/ha [6] | inhibition at 11200 g/ha [7] | inhibition at 11200 g/ha [8] | inhibition at 11200 g/ha [9] | plant injury rating, Hese ([1]; 0.2803 kg/ha) | plant injury rating, Mogl ([2]; 0.2803 kg/ha) | plant injury rating, Prmi ([3]; 0.2803 kg/ha) | plant injury rating, Vele ([4]; 0.2803 kg/ha) | plant injury rating, Wibw ([5]; 0.2803 kg/ha) | plant injury rating, Cotz ([10]; 1.1210 kg/ha) | further results |
| --- | --- | --- | --- | --- | --- | --- | --- | --- | --- | --- | --- | --- | --- | --- | --- | --- | --- | --- | --- | --- | --- |
| COC(=O)c1c(OC)nc(C(F)(F)Cl)c(C(=O)OC)c1CC(C)C [Compound 30, 3,5-pyridinedicarboxylic acid, 2-(chlorodifluoromethyl)-6-methoxy-4-(2-methylpropyl)-, dimethyl ester] | 1 | 1 | 1 | 1 | 0 | 0 | 1 | 1 | 1 | 1 | – | – | – | – | – | – | – | – | – | – | plant injury rating, Hese ([1]; 0.5605 kg/ha): 1; plant injury rating, Hese ([1]; 2.8025 kg/ha): 1; plant injury rating, Hese ([1]; 8.4075 kg/ha): 2; plant injury rating, Hese ([1]; 11.2100 kg/ha): 1; plant injury rating, Mogl ([2]; 0.5605 kg/ha): 1; plant injury rating, Mogl ([2]; 2.8025 kg/ha): 1; plant injury rating, Mogl ([2]; 8.4075 kg/ha): 1; plant injury rating, Mogl ([2]; 11.2100 kg/ha): 2; plant injury rating, Prmi ([3]; 0.5605 kg/ha): 0; plant injury rating, Prmi ([3]; 2.8025 kg/ha): 1; plant injury rating, Prmi ([3]; 8.4075 kg/ha): 0; plant injury rating, Prmi ([3]; 11.2100 kg/ha): 0; plant injury rating, Vele ([4]; 0.5605 kg/ha): 1; plant injury rating, Vele ([4]; 2.8025 kg/ha): 1; plant injury rating, Vele ([4]; 8.4075 kg/ha): 2; plant injury rating, Vele ([4]; 11.2100 kg/ha): 1; plant injury rating, Wibw ([5]; 0.5605 kg/ha): 1; plant injury rating, Wibw ([5]; 2.8025 kg/ha): 1; plant injury rating, Wibw ([5]; 8.4075 kg/ha): 1; plant injury rating, Wibw ([5]; 11.2100 kg/ha): 2 |
| COC(=O)c1c(OC)nc(C(F)(F)F)c(N=CSC)c1CC(C)C [Compound 77, 3-pyridinecarboxylic acid, 2-methoxy-4-(2-methylpropyl)-5-[[(methylthio)methylene]amino]-6-(trifluoromethyl)-, methyl ester] | – | – | 1 | 2 | 0 | 0 | – | – | – | – | – | – | – | – | – | – | – | – | – | – | plant injury rating, Mogl ([2]; 2.8025 kg/ha): 2; plant injury rating, Mogl ([2]; 11.2100 kg/ha): 3; plant injury rating, Prmi ([3]; 2.8025 kg/ha): 0 |
| COC(=O)c1c(OC)nc(C(F)(F)F)c(C(=O)Cl)c1CC1CC1 [Compound 113, 3-pyridinecarboxylic acid, 5-(chlorocarbonyl)-4-(cyclopropylmethyl)-2-methoxy-6-(trifluoromethyl)-, methyl ester] | 0 | 1 | 0 | 1 | 0 | 0 | 0 | 1 | 0 | 1 | 75 to 100% | 0 to 24% | 75 to 100% | 25 to 49% | 0 | 0 | 0 | 0 | 0 | 0 | plant injury rating, Cotz ([10]; 0.2803 kg/ha): 0; plant injury rating, Cotz ([10]; 5.6050 kg/ha): 0; plant injury rating, Rape ([11]; 0.2803 kg/ha): 0; plant injury rating, Rape ([11]; 1.1210 kg/ha): 0; plant injury rating, Rape ([11]; 5.6050 kg/ha): 1 |
| COC(=O)c1c(OC)nc(C(F)(F)F)c(C(=O)n2cccn2)c1CC1CC1 [Compound 116, 3-pyridinecarboxylic acid, 4-(cyclopropylmethyl)-2-methoxy-5-(1H-pyrazo1-1-ylcarbonyl)-6-(trifluoromethyl)-, methyl ester] | 2 | 2 | 2 | 2 | 0 | 0 | 3 | 2 | 2 | 2 | 75 to 100% | 75 to 100% | 75 to 100% | 75 to 100% | 1 | 1 | 0 | 2 | 1 | 1 | plant injury rating, Hese ([1]; 0.0701 kg/ha): 1; plant injury rating, Mogl ([2]; 0.0701 kg/ha): 2; plant injury rating, Prmi ([3]; 0.0701 kg/ha): 0; plant injury rating, Vele ([4]; 0.0701 kg/ha): 1; plant injury rating, Wibw ([5]; 0.0701 kg/ha): 1; plant injury rating, Cotz ([10]; 0.0701 kg/ha): 0; plant injury rating, Cotz ([10]; 0.2803 kg/ha): 0; plant injury rating, Cotz ([10]; 5.6050 kg/ha): 1; plant injury rating, Rape ([11]; 0.0701 kg/ha): 1; plant injury rating, Rape ([11]; 0.2803 kg/ha): 2; plant injury rating, Rape ([11]; 1.1210 kg/ha): 3; plant injury rating, Rape ([11]; 5.6050 kg/ha): 3 |
| COC(=O)c1c(OC)nc(C(F)(F)F)c(C(=O)SC)c1C1CCC1 [Compound 137, 3-pyridinecarboxylic acid, 4-cyclobuty1-2-methoxy-5-[(methylthio)carbonyl]-6-(trifluoromethyl)-, methyl ester] | 3 | 3 | 1 | 2 | 0 | 1 | 3 | 2 | 3 | 2 | 75 to 100% | 75 to 100% | 75 to 100% | 75 to 100% | 1 | 1 | 0 | 3 | 0 | 2 | plant injury rating, Cotz ([10]; 0.2803 kg/ha): 1; plant injury rating, Cotz ([10]; 5.6050 kg/ha): 2; plant injury rating, Rape ([11]; 0.2803 kg/ha): 3; plant injury rating, Rape ([11]; 1.1210 kg/ha): 3; plant injury rating, Rape ([11]; 5.6050 kg/ha): 3 |
| COC(=O)c1c(OC)nc(C(F)(F)F)c(C(=O)n2ccc(F)n2)c1C1CCC1 [Compound 140, 3-pyridinecarboxylic acid, 4-cyclobuty1-5-[(3-fluoro-1H-pyrazo1-1-yl)carbonyl]-2-methoxy-6-(trifluoromethyl)-, methyl ester] | 3 | 3 | 2 | 2 | 0 | 0 | 2 | 2 | – | 1 | 75 to 100% | 75 to 100% | 75 to 100% | 75 to 100% | 3 | 2 | 0 | 3 | 0 | 1 | plant injury rating, Cotz ([10]; 5.6050 kg/ha): 1; plant injury rating, Rape ([11]; 0.2803 kg/ha): 3; plant injury rating, Rape ([11]; 1.1210 kg/ha): 3; plant injury rating, Rape ([11]; 5.6050 kg/ha): 3 |
